We go through 24 molecules from patent US9617226B2 (AbbVie Deutschland GmbH & Co. KG, priority 2014, dated 2017).

Test [1] has as its target human vasopressin V1b receptor (Homo sapiens (Human), UniProt P47901). The test can be described thus: biochemical.
Test [2] addresses human vasopressin V1a receptor (Homo sapiens (Human), UniProt P37288). The test can be described thus: Vasopressin V1a receptor binding assay. The settings on record: selectivity quotient, human V1a vs human V1b. Here is the method: The test substances were dissolved in a concentration of 5 mM M in DMSO. Further dilution of these DMSO solutions took place as described for V1b.
The membrane pellet was again homogenized in a High-Pressure-Homogenizer, Polytec 50K at 1500 PSI (Heinemann, Germany) and subsequently taken up in 50 mM Tris-HCl, pH 7.4, homogenized and stored in aliquots frozen in liquid nitrogen at −190° C.
The incubation buffer was: 50 mM Tris, 10 mM MgCl2, 0.1% BSA, pH 7.4.
Duplicate determinations were carried out.
After incubation (60 minutes at room temperature), the samples were processed as described for V1b.
The binding parameters were calculated by nonlinear regression in SAS.

By Ki is commonly meant the dissociation constant of the complex between target and ligand, obtained from inhibition or displacement. A lower Ki goes with a stronger hold on the target.

Chain of human vasopressin V1a receptor (P37288 whole entry): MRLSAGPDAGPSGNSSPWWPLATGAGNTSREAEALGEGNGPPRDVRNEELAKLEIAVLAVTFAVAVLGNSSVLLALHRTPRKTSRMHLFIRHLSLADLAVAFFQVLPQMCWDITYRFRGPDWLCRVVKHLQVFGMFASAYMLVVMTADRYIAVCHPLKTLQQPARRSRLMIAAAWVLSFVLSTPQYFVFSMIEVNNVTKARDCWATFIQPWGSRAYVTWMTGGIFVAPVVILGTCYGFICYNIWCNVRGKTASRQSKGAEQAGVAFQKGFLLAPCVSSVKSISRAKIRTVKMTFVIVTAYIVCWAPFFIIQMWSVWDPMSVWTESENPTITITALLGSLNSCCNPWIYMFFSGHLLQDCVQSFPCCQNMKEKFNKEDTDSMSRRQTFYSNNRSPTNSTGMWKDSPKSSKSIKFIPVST
Chain of human vasopressin V1b receptor (P47901 whole entry): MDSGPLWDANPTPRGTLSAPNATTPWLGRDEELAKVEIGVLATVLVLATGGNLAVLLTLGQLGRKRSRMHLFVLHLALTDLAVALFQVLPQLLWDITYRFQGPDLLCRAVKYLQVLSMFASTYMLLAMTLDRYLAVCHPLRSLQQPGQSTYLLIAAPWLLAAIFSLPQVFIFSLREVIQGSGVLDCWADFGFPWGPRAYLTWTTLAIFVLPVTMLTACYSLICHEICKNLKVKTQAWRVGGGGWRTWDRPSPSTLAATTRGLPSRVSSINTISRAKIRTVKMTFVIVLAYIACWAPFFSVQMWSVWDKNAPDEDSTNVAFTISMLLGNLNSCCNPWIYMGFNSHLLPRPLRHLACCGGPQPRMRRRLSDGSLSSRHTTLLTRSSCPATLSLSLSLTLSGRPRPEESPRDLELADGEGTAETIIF

`COC1CCN(C[C@H]2C[C@@H](c3ccc4nc(-c5cccc(Cl)c5)n(CC(=O)NC(C)C)c(=O)c4c3)C2)CC1` [Example 10, cis-2-[2-(3-Chlorophenyl)-6-[3-[(4-methoxy-1-piperidyl)methyl]cyclobutyl]-4-oxo-quinazolin-3-yl]-N-isopropyl-acetamide] registered a Ki in test [1] of 1 to 10 nM. Moreover, the “Ki(h-V1a)/Ki(h-V1b)” value in test [2] was “+++ (>75)”.

`CC(C)NC(=O)Cn1c(-c2cccc(Cl)c2)nc2ccc([C@H]3C[C@@H](CN4C[C@@H](C)O[C@@H](C)C4)C3)cc2c1=O` [Example 42, cis-2-[2-(3-Chlorophenyl)-6-[3-[[(2S,6R)-2,6-dimethylmorpholin-4-yl]methyl]cyclobutyl]-4-oxo-quinazolin-3-yl]-N-isopropyl-acetamide] displayed a Ki in test [1] of 1 to 10 nM. Further, the “Ki(h-V1a)/Ki(h-V1b)” value in test [2] was “+++ (>75)”.

`CC(C)NC(=O)Cn1c(-c2cccc(Cl)c2)nc2ccc([C@H]3C[C@@H](CN4CCCC(C#N)C4)C3)cc2c1=O` (relative stereo) [Example 14, cis-2-[2-(3-Chlorophenyl)-6-[3-[(3-cyano-1-piperidyl)methyl]cyclobutyl]-4-oxo-quinazolin-3-yl]-N-isopropyl-acetamide] came in with a Ki in test [1] of 1 to 10 nM. For the same molecule, in test [2], the “Ki(h-V1a)/Ki(h-V1b)” value was “+++ (>75)”.

The molecule `CC(C)NC(=O)Cn1c(-c2cccc(Cl)c2)nc2ccc([C@H]3C[C@@H](CN4C5CCC4CC(O)C5)C3)cc2c1=O` (relative stereo) [Example 23, cis-2-[2-(3-Chlorophenyl)-6-[3-[(3-hydroxy-8-azabicyclo[3.2.1]octan-8-yl)methyl]cyclobutyl]-4-oxo-quinazolin-3-yl]-N-isopropyl-acetamide] registered a Ki in test [1] of 1 to 10 nM. The “Ki(h-V1a)/Ki(h-V1b)” value in test [2] is given as “+++ (>75)”.

Consider `CC(C)NC(=O)Cn1c(-c2cccc(Cl)c2)nc2ccc([C@H]3C[C@@H](CN4CC[C@@H](F)C4)C3)cc2c1=O` [Example 11, cis-2-[2-(3-Chlorophenyl)-6-[3-[[(3R)-3-fluoropyrrolidin-1-yl]methyl]cyclobutyl]-4-oxo-quinazolin-3-yl]-N-isopropyl-acetamide], for which the inhibition constant (Ki) in test [1] fell in the range of 1 to 10 nM. Also, in test [2], the “Ki(h-V1a)/Ki(h-V1b)” value is “+++ (>75)”.

For `CC(C)NC(=O)Cn1c(-c2cccc(Cl)c2)nc2ccc([C@H]3C[C@@H](CN(C)C)C3)cc2c1=O` [Example 17, cis-2-[2-(3-Chlorophenyl)-6-[3-(dimethylaminomethyl)cyclobutyl]-4-oxo-quinazolin-3-yl]-N-isopropyl-acetamide], the Ki in test [1] was 10 to 100 nM. For the same molecule, in test [2], the “Ki(h-V1a)/Ki(h-V1b)” value is reported as “+++ (>75)”.

In the case of `CCN(CC)C[C@H]1C[C@@H](c2ccc3nc(-c4cccc(Cl)c4)n(CC(=O)NC(C)C)c(=O)c3c2)C1` [Example 15, cis-2-[2-(3-Chlorophenyl)-6-[3-(diethylaminomethyl)cyclobutyl]-4-oxo-quinazolin-3-yl]-N-isopropyl-acetamide], the Ki in test [1] was 10 to 100 nM. In addition, the “Ki(h-V1a)/Ki(h-V1b)” value in test [2] is “+++ (>75)”.

`CC1CCN(C[C@H]2C[C@@H](c3ccc4nc(-c5cccc(Cl)c5)n(CC(=O)NC(C)C)c(=O)c4c3)C2)CC1` [Example 22, cis-2-[2-(3-Chlorophenyl)-6-[3-[(4-methyl-1-piperidyl)methyl]cyclobutyl]-4-oxo-quinazolin-3-yl]-N-isopropyl-acetamide] displayed a Ki in test [1] of 1 to 10 nM. The “Ki(h-V1a)/Ki(h-V1b)” value in test [2] is “+++ (>75)”.

With `CC(C)NC(=O)Cn1c(-c2cccc(Cl)c2)nc2ccc([C@H]3C[C@@H](CN4CC(C)OC(C)C4)C3)cc2c1=O` (relative stereo) [Example 43, cis-2-[2-(3-Chlorophenyl)-6-[3-[(2,6-dimethylmorpholin-4-yl)methyl]cyclobutyl]-4-oxo-quinazolin-3-yl]-N-isopropyl-acetamide], the Ki in test [1] lay in the range of 10 to 100 nM. Further, in test [2], the “Ki(h-V1a)/Ki(h-V1b)” value is reported as “+++ (>75)”.

`CC(C)NC(=O)Cn1c(-c2cccc(Cl)c2)nc2ccc([C@H]3C[C@@H](CN4CCC(F)(F)CC4)C3)cc2c1=O` [Example 12, cis-2-[2-(3-Chlorophenyl)-6-[3-[(4,4-difluoro-1-piperidyl)methyl]cyclobutyl]-4-oxo-quinazolin-3-yl]-N-isopropyl-acetamide] had a Ki in test [1] of 1 to 10 nM. The “Ki(h-V1a)/Ki(h-V1b)” value in test [2] is on record as “+++ (>75)”.

For the molecule `CC(C)NC(=O)Cn1c(-c2cccc(Cl)c2)nc2ccc([C@H]3C[C@@H](CN4CCOC[C@H]4C)C3)cc2c1=O` [Example 44, cis-2-[2-(3-Chlorophenyl)-6-[3-[[(3R)-3-methylmorpholin-4-yl]methyl]cyclobutyl]-4-oxo-quinazolin-3-yl]-N-isopropyl-acetamide], the Ki in test [1] is 1 to 10 nM. Also, in test [2], the “Ki(h-V1a)/Ki(h-V1b)” value is given as “+++ (>75)”.

For the molecule `CC(C)NC(=O)Cn1c(-c2cccc(Cl)c2)nc2ccc(C3=CC(CN4CCCCC4)C3)cc2c1=O` (stereo not drawn) [Example 1, 2-(2-(3-Chlorophenyl)-4-oxo-6-(3-(piperidin-1-ylmethyl)cyclobut-1-en-1-yl)quinazolin-3(4H)-yl)-N-isopropylacetamide], in test [1], the Ki fell in the range of 10 to 100 nM. Further, the “Ki(h-V1a)/Ki(h-V1b)” value in test [2] is “+++ (>75)”.

As for `CC(C)NC(=O)Cn1c(-c2cccc(Cl)c2)nc2ccc([C@H]3C[C@@H](CN4CC5(CCOCC5)C4)C3)cc2c1=O` [Example 41, cis-2-[2-(3-Chlorophenyl)-6-[3-(7-oxa-2-azaspiro[3.5]nonan-2-ylmethyl)cyclobutyl]-4-oxo-quinazolin-3-yl]-N-isopropyl-acetamide], in test [1], the Ki lay within 1 to 10 nM. Also, the “Ki(h-V1a)/Ki(h-V1b)” value in test [2] is reported as “+++ (>75)”.

As for `O=C(Cn1c(-c2cccc(Cl)c2)nc2ccc([C@H]3C[C@@H](CN4CCCCC4)C3)cc2c1=O)NC1CC1` [Example 27, cis-2-[2-(3-Chlorophenyl)-4-oxo-6-[3-(1-piperidylmethyl)cyclobutyl]quinazolin-3-yl]-N-cyclopropyl-acetamide], in test [1], the Ki was in the range of 10 to 100 nM. Further, in test [2], the “Ki(h-V1a)/Ki(h-V1b)” value is on record as “+++ (>75)”.

On to `CC(C)NC(=O)Cn1c(-c2cccc(Cl)c2)nc2ccc([C@H]3C[C@@H](CN4CC5(COC5)C4)C3)cc2c1=O` [Example 31, cis-2-[2-(3-Chlorophenyl)-6-[3-(6-oxa-2-azaspiro[3.3]heptan-2-ylmethyl)cyclobutyl]-4-oxo-quinazolin-3-yl]-N-isopropyl-acetamide], for which, in test [1], the Ki fell in the range of 1 to 10 nM. Besides, in test [2], the “Ki(h-V1a)/Ki(h-V1b)” value is on record as “+++ (>75)”.

As for `CC(C)NC(=O)Cn1c(-c2cccc(Cl)c2)nc2ccc([C@H]3C[C@@H](CN4CCCC(F)C4)C3)cc2c1=O` (relative stereo) [Example 39, cis-2-[2-(3-Chlorophenyl)-6-[3-[(3-fluoro-1-piperidyl)methyl]cyclobutyl]-4-oxo-quinazolin-3-yl]-N-isopropyl-acetamide], the Ki in test [1] was 1 to 10 nM. Besides, the “Ki(h-V1a)/Ki(h-V1b)” value in test [2] is listed as “+++ (>75)”.

Consider `CC(C)NC(=O)Cn1c(-c2cccc(Cl)c2)nc2ccc([C@H]3C[C@@H](CN4CCCCCC4)C3)cc2c1=O` [Example 21, cis-2-[6-[3-(Azepan-1-ylmethyl)cyclobutyl]-2-(3-chlorophenyl)-4-oxo-quinazolin-3-yl]-N-isopropyl-acetamide], for which, in test [1], the Ki was in the range of 1 to 10 nM. Further, the “Ki(h-V1a)/Ki(h-V1b)” value in test [2] was “+++ (>75)”.

On to `CC(C)NC(=O)Cn1c(-c2cccc(Cl)c2)nc2ccc(C3CC3CN3CCCCC3)cc2c1=O` (stereo not drawn) [Example 4, 2-[2-(3-Chlorophenyl)-4-oxo-6-[2-(1-piperidylmethyl)cyclopropyl]quinazolin-3-yl]-N-isopropyl-acetamide], for which the Ki in test [1] fell in the range of 10 to 100 nM. The “Ki(h-V1a)/Ki(h-V1b)” value in test [2] is “+++ (>75)”.

`CC(C)NC(=O)Cn1c(-c2cccc(Cl)c2)nc2ccc([C@H]3C[C@@H](CN4CCC(F)CC4)C3)cc2c1=O` [Example 30, cis-2-[2-(3-Chlorophenyl)-6-[3-[(4-fluoro-1-piperidyl)methyl]cyclobutyl]-4-oxo-quinazolin-3-yl]-N-isopropyl-acetamide] showed a Ki in test [1] of 1 to 10 nM. Further, in test [2], the “Ki(h-V1a)/Ki(h-V1b)” value is listed as “+++ (>75)”.

In test [1], `CC(C)NC(=O)Cn1c(-c2cccc(Cl)c2)nc2ccc([C@H]3C[C@@H](CN4CCCCC4)C3)cc2c1=O` [Example 2a, cis-2-[2-(3-chlorophenyl)-4-oxo-6-[3-(1-piperidylmethyl)cyclobutyl]quinazolin-3-yl]-N-isopropyl-acetamide] came in with a Ki of 1 to 10 nM. Moreover, the “Ki(h-V1a)/Ki(h-V1b)” value in test [2] is “+++ (>75)”.

Molecule `CC(C)NC(=O)Cn1c(-c2cccc(Cl)c2)nc2ccc([C@H]3C[C@@H](CN4CC=CCC4)C3)cc2c1=O` [Example 18, cis-2-[2-(3-Chlorophenyl)-6-[3-(3,6-dihydro-2H-pyridin-1-ylmethyl)cyclobutyl]-4-oxo-quinazolin-3-yl]-N-isopropyl-acetamide] displayed a Ki in test [1] of 1 to 10 nM. For the same molecule, the “Ki(h-V1a)/Ki(h-V1b)” value in test [2] is “+++ (>75)”.

Turning to `CC(C)NC(=O)Cn1c(-c2cccc(Cl)c2)nc2ccc([C@H]3C[C@@H](CN4CCCC4)C3)cc2c1=O` [Example 9, cis-2-[2-(3-Chlorophenyl)-4-oxo-6-[3-(pyrrolidin-1-ylmethyl)cyclobutyl]quinazolin-3-yl]-N-isopropyl-acetamide], the Ki in test [1] lay in the range of 10 to 100 nM. Besides, the “Ki(h-V1a)/Ki(h-V1b)” value in test [2] is on record as “+++ (>75)”.

`CCCNC(=O)Cn1c(-c2cccc(Cl)c2)nc2ccc([C@H]3C[C@@H](CN4CCCCC4)C3)cc2c1=O` [Example 28, cis-2-[2-(3-Chlorophenyl)-4-oxo-6-[3-(1-piperidylmethyl)cyclobutyl]quinazolin-3-yl]-N-propyl-acetamide] gave a Ki in test [1] of 10 to 100 nM. Besides, the “Ki(h-V1a)/Ki(h-V1b)” value in test [2] is reported as “+++ (>75)”.

`CC(C)NC(=O)Cn1c(-c2cccc(Cl)c2)nc2ccc([C@H]3C[C@@H](CN4CCC[C@@H](O)C4)C3)cc2c1=O` [Example 33, cis-2-[2-(3-Chlorophenyl)-6-[3-[[(3R)-3-hydroxy-1-piperidyl]methyl]cyclobutyl]-4-oxo-quinazolin-3-yl]-N-isopropyl-acetamide]: the Ki in test [1] lay within 1 to 10 nM. The “Ki(h-V1a)/Ki(h-V1b)” value in test [2] is “+++ (>75)”.
